Marks after values point to notes of the source that are not given here.
Columns and labels:
[1] = test system: serum creatinine and blood urea nitrogen; assay: Folic acid-induced acute kidney injury, serum creatinine and urea; type: in vivo, C57BL/6 mice; design: unit not given here; settings: folic acid acute model
Experimental: Except for the normal group, all other mice were administered folic acid (250 mg/kg) dissolved in 0.9% NaHCO3 solution via intraperitoneal injection to establish an acute kidney injury model.
The blood was allowed to stand at room temperature for 2 hours, then centrifuged at 3000 rpm for 20 minutes. Serum was aspirated, aliquoted, and stored at −70° C. for future use. Following blood collection, euthanize mice by cervical dislocation. Perform laparotomy to remove kidneys, dissect out perirenal fat and capsules. […] Paraffin-embedded specimens undergo HE staining; remaining tissue is stored at −70° C. for future use.
Serum Creatinine (Scr) and Blood Urea Nitrogen (BUN) Level Assay: 10 μL of serum from each sample was used for creatinine and urea level detection. Samples were added sequentially strictly following the kit instructions. After incubation at 37° C., absorbance values were measured using an enzyme-linked immunosorbent assay (ELISA) reader. The concentration levels of each indicator were calculated based on the standard curve.

H22 cells = assay: Antitumor efficacy combined with anti-PD-L1 monoclonal antibody, H22 xenograft; type: in vivo, Balb/c mice; settings: 2 weeks; for combination with anti-PD-L1 monoclonal antibody vs. single agents, H22: 2.5 mg/kg/day i.p., result in words; for Tumor inhibition rate (%) / Tumor weight: dose 2.5 (head μmol/kg/day; text 2.5 mg/kg/day), i.p. daily, H22
Experimental: H22 cells were cultured and expanded in vitro. An appropriate number of cells in the logarithmic growth phase was resuspended in a mixture of serum-free RPMI 1640 medium and Matrigel (1:1). Under aseptic conditions, prepare a2×10^6/100 μL cell suspension. Using a syringe, inject 100 μL of the cell suspension subcutaneously into the left forelimb axilla of male Balb/c mice. […] Compounds 20 and 103 were administered daily via intraperitoneal injection, while anti-PD-L1 monoclonal antibody was administered every three days via intraperitoneal injection for a 2-week treatment period. During the treatment period, mouse body weight and tumor diameter were measured daily. At the end of the experiment, mice were euthanized by cervical dislocation, and tumors were removed and weighed. Tumor volume (TV) was calculated using the formula: TV=½×a×b^2, where a represents the longest diameter of the tumor and b represents the shortest diameter.

[2] = test system: inflammatory factors (MCP-1, TNF-α) in renal tissue; assay: Diabetic nephropathy, renal inflammatory factor mRNA; type: in vivo, C57/BL6J mice; design: Mcp-1 mRNA expression, kidney / Tnf-α mRNA expression, kidney / IL-6 mRNA expression, kidney: unit not given here; settings: 8 weeks
Experimental: Experimental animals: C57/BL6J mice, male, 12 weeks old, purchased from GemPharmatech LLC. Production license number: SCXK(Su)2023-0009. […] Animals were acclimated for 7 days before use in experiments.
Administer streptozotocin (STZ, 50 mg/kg) via intraperitoneal injection for 5 consecutive days. After 72 hours, select mice with fasting blood glucose levels exceeding 16.7 mmol/L as model mice. […] Model mice were fed a high-fat diet (HFD) providing 60% of energy from fat for 8 weeks. After 8 weeks, gavage administration commenced.
Specimen Collection: One hour after the last drug administration, enucleate the eyeball to collect blood. Allow blood to stand at room temperature for 2 hours, then centrifuge at 3000 rpm for 20 minutes. Aspirate the serum, aliquot it, and store at −70° C. for future use. After blood collection, euthanize the mice by cervical dislocation. Open the abdominal cavity, remove the kidneys, and dissect away the perirenal fat and capsule. Store the tissue at −70° C. for future use.

[3] = test system: fibrosis-related factors (Acta2, Col1a1, Tgfb1) in liver tissue; assay: CCl4-induced acute liver injury, liver fibrosis-related factor mRNA; type: in vivo, C57BL/6 mice; design: unit not given here
Experimental: (§1) They were acclimated for 7 days before use in experiments.
(§2) Mice were randomly assigned to groups. One group was arbitrarily designated as the normal group, while the remaining groups served as model group, Compound 1 group, Hydrochloride 20 group, Fumarate 21 group, and Silibinin group, with 6 mice per group. Except for the normal group receiving 10 mL olive oil/kg via injection, all other mice received 0.5 mL CCl4+9.5 mL olive oil/kg body weight via intraperitoneal injection, maintaining a CCl4 to olive oil ratio of 1:19. Starting from day 1 of modeling, Compound 1, Hydrochloride 20, and Fumarate 21 were administered orally for 3 consecutive days.
(§3) The blood was allowed to stand at room temperature for 2 hours, then centrifuged at 3000 rpm for 20 minutes. Serum was aspirated, aliquoted, and stored at −70° C. for future use. After blood collection, euthanize mice by cervical dislocation. Perform laparotomy to remove the liver. Rinse twice with pre-chilled PBS. Excise the left hepatic lobe tissue. […] Store remaining tissue at −70° C. for future use.
Q-PCR Analysis: Tissue total RNA extraction, cDNA synthesis, and PCR amplification methods are identical to Example 4. Additional primer information is as follows:
(§4) Data Statistics: All data are expressed as means f standard error of the mean (S.E.M.). Differences were analyzed for significance using analysis of variance (ANOVA). For groups showing significant differences in ANOVA, one-way ANOVA followed by Dunnett's test was performed to compare intergroup differences.

serum ALT and AST = assay: CCl4-induced acute liver injury, serum ALT and AST; type: in vivo, C57BL/6 mice
Experimental: as §1, §2, §3
Serum AST and ALT Assay: Use 10 μL of each sample for testing. Determine mouse serum AST and ALT levels according to the operating manual. Measure absorbance at 510 nm using an enzyme-linked immunosorbent assay (ELISA) reader. Calculate sample concentration (U/L) based on the standard curve.
as §4

[4] = test system: inflammatory factors (TNF, IL-6, IL-1) in liver tissue; assay: LPS-induced sepsis, hepatic inflammatory factor mRNA (Q-PCR); settings: for Tnf mRNA expression, liver: LPS 8.92; for Il6 mRNA expression, liver: LPS 11.34; for Il1 mRNA expression, liver: LPS 11.52
From the text: (§5) They were acclimated for 7 days before experimentation.
(§6) The normal and model groups received equal volumes of solvent (0.5% CMC-Na) via oral gavage.
(§7) Specimen Collection: One hour after the final drug administration, mice were euthanized by cervical dislocation. The abdominal cavity was opened, and the lungs, liver, and kidneys were removed. These organs were rinsed twice with pre-chilled PBS. Tissue samples were excised from the mouse lungs, left hepatic lobe, and kidneys. […] Remaining tissues were stored at −70° C. for future use.
(§8) Accurately weigh 20 mg of kidney, lung, and liver tissue. Rinse with pre-chilled PBS solution, cut into small pieces using ophthalmic scissors, and place into a glass homogenizer. Add 1 mL of Trizol reagent and grind to prepare tissue homogenate. Transfer the homogenate to a RNAse-free 1.5 mL EP tube and lyse on ice for 10 min. Add 200 μL chloroform, vortex vigorously, and let stand on ice for 3-5 min. Centrifuge at 12,000 rpm and 4° C. for 15 min. Carefully transfer the supernatant to a new RNAse-free 1.5 mL EP tube. Add an equal volume of pre-chilled isopropanol, incubate on ice for 30 min, then centrifuge at 12,000 rpm and 4° C. for 10 min. Discard the supernatant. […] Subsequently, dissolve the pellet in 10 μL DEPC-treated water. Dilute 1 μL of the total RNA solution 100-fold and measure the OD values at 260 nm and 280 nm using a full-wavelength microplate reader.
(§9) Following the method described in the kit manual, subsequent experiments were conducted using a 20 μL reverse transcription reaction system:
(§10) Primers were designed based on the nucleotide sequence of the mouse in GenBank and synthesized.
(§11) Perform subsequent experiments using a 20 μL reaction system according to the kit instructions:
(§12) After adding the above reagents to micro reaction tubes, seal them with the cap and place them in the Q-PCR instrument. Set the parameters according to the following reaction conditions to perform the amplification experiment.
(§13) Record the threshold cycle (Ct) values for each group and perform calculation and analysis using the 2^−ΔΔCt method (setting the expression level of the reference gene Gapdh as 1 to correct the expression levels of the target genes).
(§14) Data Statistics: All data are presented as Means±S.E.M. Analysis of variance (ANOVA) was performed to assess the significance of differences. Groups showing significant differences in ANOVA were further compared using one-way ANOVA and Dunnett's test. A P-value <0.05 was considered statistically significant.

[5] = test system: inflammatory cytokines (TNF, IL-6, IL-1) in lung tissue; assay: LPS-induced sepsis, lung inflammatory factor mRNA (Q-PCR); settings: for Il1 mRNA expression, lung: LPS 19.01; for Il6 mRNA expression, lung: LPS 20.34; for Tnf mRNA expression, lung: Normal = 1.00, LPS 10.92
From the text: as §5, §6, §7, §8, §9, §10, §11, §12, §13, §14

[6] = test system: inflammatory factors (TNF, IL-6, IL-1) in renal tissue; assay: LPS-induced sepsis, renal inflammatory factor mRNA (Q-PCR); settings: for Tnf mRNA expression, kidney: LPS 7.30; for Il1 mRNA expression, kidney: LPS 7.99; for Il6 mRNA expression, kidney: LPS 8.80
From the text: as §5, §6, §7, §8, §9, §10, §11, §12, §13, §14

| SMILES | BUN ([1]; 0.1 mg/kg oral) | Scr (serum creatinine) ([1]; 0.1 mg/kg oral) | BUN ([1]; 1 mg/kg oral) | combination with anti-PD-L1 monoclonal antibody vs. single agents, H22 (H22 cells) | Tumor inhibition rate (%) (H22 cells) | Tumor weight (H22 cells) [g] | Mcp-1 mRNA expression, kidney ([2]; 1 mg/kg gavage) | Tnf-α mRNA expression, kidney ([2]; 1 mg/kg gavage) | Mcp-1 mRNA expression, kidney ([2]; 10 mg/kg gavage) | Tnf-α mRNA expression, kidney ([2]; 10 mg/kg gavage) | Acta2 mRNA expression, liver ([3]; 1 mg/kg oral) | Col1a1 mRNA expression, liver ([3]; 1 mg/kg oral) | Tgfb1 mRNA expression, liver ([3]; 1 mg/kg oral) | ALT (serum ALT and AST; 1 mg/kg oral) [U/L] | AST (serum ALT and AST; 1 mg/kg oral) [U/L] | Tnf mRNA expression, liver ([4]; 1 mg/kg oral) | Il6 mRNA expression, liver ([4]; 1 mg/kg oral) | Il1 mRNA expression, liver ([4]; 1 mg/kg oral) | Il1 mRNA expression, lung ([5]; 1 mg/kg oral) | Il6 mRNA expression, lung ([5]; 1 mg/kg oral) | other results |
| --- | --- | --- | --- | --- | --- | --- | --- | --- | --- | --- | --- | --- | --- | --- | --- | --- | --- | --- | --- | --- | --- |
| CC1=C2CC[C@@](C)(OC(=O)N3CCCC3)[C@@H]2[C@H]2OC(=O)[C@@H](CN3CCCC3)[C@@H]2CC1 [Compound 103] | 23.42 ± 13.11 | 74.95 ± 21.37 | 20.38 ± 10.82 | synergistic effect | 41.90 | 0.70 ± 0.08 | 6.78 ± 1.70 | 3.14 ± 0.57 | 5.67 ± 2.31 | 2.15 ± 0.13 |  |  |  |  |  |  |  |  |  |  | Scr (serum creatinine) ([1]; 1 mg/kg oral): 73.88 ± 14.26; BUN ([1]; 10 mg/kg oral): 17.72 ± 7.78; Scr (serum creatinine) ([1]; 10 mg/kg oral): 45.19 ± 7.41; IL-1 β mRNA expression, kidney ([2]; 1 mg/kg gavage): 1.00 ± 0.25 ^; IL-6 mRNA expression, kidney ([2]; 1 mg/kg gavage): 4.47 ± 1.06; IL-1 β mRNA expression, kidney ([2]; 10 mg/kg gavage): 0.96 ± 0.18**^; IL-6 mRNA expression, kidney ([2]; 10 mg/kg gavage): 3.97 ± 0.94 |
| CN(C)C[C@@H]1C(=O)O[C@H]2[C@H]1CC[C@@]1(C)C[C@]13CC[C@@](C)(O)[C@H]23 [Compound 21] | 30.08 ± 3.03 | 90.69 ± 12.83 | 18.95 ± 2.58 |  |  |  |  |  |  |  | 2.18 ± 0.42 | 1.26 ± 0.27 | 0.88 ± 0.16 | 95.82 ± 2.72 | 215.82 ± 63.48 | 7.12 ± 1.12 | 4.82 ± 0.69 | 4.22 ± 0.90 | 6.79 ± 0.72 | 9.10 ± 1.20 | Acta2 mRNA expression, liver ([3]; 0.1 mg/kg oral): 2.86 ± 0.26; Col1a1 mRNA expression, liver ([3]; 0.1 mg/kg oral): 1.83 ± 0.53; Tgfb1 mRNA expression, liver ([3]; 0.1 mg/kg oral): 1.08 ± 0.29; ALT (serum ALT and AST; 0.1 mg/kg oral): 132.32 ± 31.96 U/L; AST (serum ALT and AST; 0.1 mg/kg oral): 385.64 ± 28.70 U/L; Scr (serum creatinine) ([1]; 1 mg/kg oral, 1 mg/kg): 50.39 ± 7.65; Tnf mRNA expression, liver ([4]; 0.1 mg/kg oral): 7.78 ± 1.68; Il6 mRNA expression, liver ([4]; 0.1 mg/kg oral): 8.96 ± 0.70; Il1 mRNA expression, liver ([4]; 0.1 mg/kg oral): 10.32 ± 1.45; Il1 mRNA expression, lung ([5]; 0.1 mg/kg oral): 13.30 ± 0.88; Il6 mRNA expression, lung ([5]; 0.1 mg/kg oral): 18.40 ± 3.16; Tnf mRNA expression, lung ([5]; 0.1 mg/kg oral): 8.79 ± 1.18; Tnf mRNA expression, lung ([5]; 1 mg/kg oral): 8.67 ± 1.51; Tnf mRNA expression, kidney ([6]; 0.1 mg/kg oral): 6.70 ± 0.80; Il1 mRNA expression, kidney ([6]; 0.1 mg/kg oral): 6.56 ± 0.88; Il6 mRNA expression, kidney ([6]; 0.1 mg/kg oral): 6.05 ± 0.19; Tnf mRNA expression, kidney ([6]; 1 mg/kg oral): 6.04 ± 1.62; Il1 mRNA expression, kidney ([6]; 1 mg/kg oral): 2.82 ± 0.33; Il6 mRNA expression, kidney ([6]; 1 mg/kg oral): 2.70 ± 0.52 |
| CN(C)C[C@@H]1C(=O)O[C@H]2[C@H]1CC[C@@]1(C)C[C@]13CC[C@@](C)(O)[C@H]23 [Compound 20] |  |  |  | synergistic effect | 48.67 | 0.64 ± 0.09 | 2.33 ± 0.20 | 1.38 ± 0.17 | 1.40 ± 0.22 | 0.96 ± 0.13 | 1.85 ± 0.77 | 1.16 ± 0.26 | 0.92 ± 0.21 | 85.02 ± 15.84 | 153.34 ± 27.59 | 5.71 ± 0.61 | 3.93 ± 0.90 | 3.07 ± 0.29 | 5.22 ± 0.90 | 7.16 ± 0.71 | Tnf mRNA expression, lung ([5]; 1 mg/kg oral): 6.52 ± 0.29; Tnf mRNA expression, kidney ([6]; 1 mg/kg oral): 6.20 ± 0.60; Il1 mRNA expression, kidney ([6]; 1 mg/kg oral): 2.76 ± 0.59; Il6 mRNA expression, kidney ([6]; 1 mg/kg oral): 2.43 ± 0.64 |
